Residues, ends and D or L forms follow the SMILES beside them.
Columns and labels:
[1] = test system: vas deferences; details: continuous perfusion of 1 mg/mL for one min
Experimental: (§1) Each experiment was repeated at least three times. The mean responses before and after drug treatment were compared by means of Student's t test, with p<0.05, indicating significance. The contractile force of both pulmonary artery and vas deferences was elicited after continuous perfusion of dopamine (1 mg/mL) for one min.
(§2) Male guinea pigs (250-350 g) were stunned and bled. The vas deferences and pulmonary artery were isolated. A piece of the smooth muscle (about 1 mm wide and 7 mm long) was dissected. The isolated part was mounted vertically on an organ bath (1 mL capacity), kept at 35° C. and superfused with a physiological solution at a constant rate of about 2 mL /min (35° C.). The normal physiological solution had the following composition: NaCl (117 mM), KCl (5.9 mM), CaCl2 (2.4 mM), MgCl2 (1.2 mM), D-glucose (11.8 mM) and Tris 20 (pH 7.4 at 35° C.), aerated with 100% oxygen. Drugs tested were perfused for one min and then superfused with normal physiological solution or otherwise indicated. Tension was recorded isometrically by means of a Grass FT03 tranducer connected to a Grass model 7E polygraph or by a Gould UC2 transducer connected to a Gould 2200S recorder. Each experiment was repeated at least three times with different preparations.

[2] = test system: pulmonary artery; details: continuous perfusion of 1 mg/mL for one min
Experimental: as §1, §2

[3] = test system: 6-hydroxydopamine-lesioned male Wistar rats; assay: Rotational behavior of nigrostriatal-lesioned rats elicited by (+)-methamphetamine; assay type: in vivo, rat; details: for rotation: control saline 552 ± 47
From the text: Anti-Parkinsonism effect was determine by virtue of measuring the change in rotational behavior of 6-hydroxydopamine-lesioned male Wistar rats [Hudson J. L.; Levin. D. R.; Hoffer, B. J. A Sixteen-Channel Automated Rotometer System For Reliable Measurement of Turning Behavior in 6-Hydroxydopamine Lesioned and Transplanted Rats. Cell Transplantation 1993, 2, 507-514; Hudson J. L, Van Horne C. G.; Stromberg I.; Brock. S.; Clayton, J.; Masserano, J.; Hoffer, B. J.; Gerhardt, G. A. Correlation of Apomorphine and Amphetamine Induced Turning With Nigrostriatal Dopamine Content in Unilateral 6-Hydroxydopamine Lesioned Rats. Brain Res. 1993, 626, 167-174].
Twenty male Wistar rats weighing 150-175 grams were used. Within a 36 h window, all rats were lesioned by the same investigator using the following procedure. Surgical anesthesia was produced by i.p. injection of 30 mg/kg of sodium pentobarbtal. The animals were placed in a stereotaxic frame and the skin over the skull was incised and reflected. Bregma was used as the coordinate origin and a burr-hole was placed in the cranium over the injection site. After a small-needle puncture of the dura and lowering into the brain parenchyma, a solution of […] of 6-hydroxydopamine HCl was injected using a microliter syringe and a 26 gauge dome-tipped needle (AP-4.4 mm, ML 1.3 mm. DV -7.8 mm). The needle was removed after a 1 min delay and the wound was closed. Convalescence occurred in home cages with food and water ad libitum for the duration of the experiment.
On each testing day, the rats were placed into rotometer bowls and were allowed to acclimatize for 10 min. They then received a subcutaneous dose of (+)-methamphetamine (4 mg/kg in vehicle) and were allowed to move within the bowls for at least 60 min, or until they stopped turning. The rats were returned to the home cages after the experiment until next testing session.
The degree of dopamine depletion was evaluated by monthly testing of rotational behavior in a multichannel rotometer system after methamphetamine (4 mg/Kg, s.c.) injection.

[4] = cited from earlier work
[5] = Single dose oral and intra-artery bioavailability study in rabbits; details: oral vs intra-artery, 10 mg/Kg, six rabbits, mean ± s.e.m.
Experimental: Prodrug 1a was subjected to single dose oral and intra-artery (i.a.) administrations on 6 fasted New Zealand white rabbits for oral bioavailability study.
Single intra-artery dose of prodrug 1a or the parent drug was administered in six fasted New Zealand white rabbits, weighting 2.5-3.0 Kg, via ear artery. Blood samples were withdrawn with heparinized syringes from the contralateral artery at time intervals ranged from 1 min to 3.5 h. Freshly drawn heparinized blood was treated with extraction buffer (1 mol of Tris and 20 g of EDTA per liter, pH 8.6) and then extracted with alumina (100 g). The alumina was extracted with acidic buffer and the extract subjected to HPLC analysis.
After wash-out period, the same rabbits were used for single oral dose administration of prodrug la with a feeding tube. […] Prodrug 1a and dihydroxybenzylamine,used as an internal standard, were detected with electrochemical detector at 0.750 V of oxidation potential. The maximal plasma concentration (Cmax) and the time to the maximal plasma concentration (tmax) were determined. The area under the plasma concentration-time profile (AUC) and the terminal half-life (t1/2) were calculated. Fraction of absorption was calculated from the pharmacokinetic parameters (tmax, Cmax, AUC, t1/2) obtained from oral and intra-artery administrations.

[6] = rat jejunal perfusion, perfusate 0.1 mM; for plasma conc. (mean ± s.e.m): blood drawn after 90 min perfusion
Experimental: The intestinal absorption of the prodrugs was then investigated by measuring the plasma concentration in rats upon in situ single-pass rat jejunal perfusion, and by determining the fraction of absorption in rabbits with data obtained from single-dose intra-artery injection and oral administration.
Perfusion solutions containing 5 mM KCl, 100 mM NaCl, 10 mM MES, 6 mM D-glucose, the testing compound, and 0.02% ascorbic acid as an anti-oxidant, were adjusted to pH 6 with NaOH. Osmolarity, measured by a Wescor 5500 vapor pressure osmometer (Wescor Company, Logan, Utah, U.S.A.), was adjusted to 300±10 mOsm/kg using sodium chloride. […] In order to prevent test compounds from oxidation, perfusion solutions were freshly prepared with nitrogen gas bubbled through for 10 min before each perfusion experiment.
Male Wistar Rats were fasted overnight (16-20 h) prior to anesthesia induced by i.m. injection of urethane (1.5 g/kg body weight). Following induction of anesthesia, rats were put on a heating pat to maintain body temperature. A midline longitudinal incision was made and a 5 to 10 cm jejunal segment was cannulated at the distal end to drain perfusates into collecting tubes. The entire surgical area was then covered with parafilm to minimize temperature reduction through evaporation. Tubing and syringes were covered with aluminum foil to retard the oxidation of testing compounds. Perfusion solution was pumped through the jejunal segment at a flow rate of 0.2 mL/min by a syringe pump (Stoelting, KD Scientific, U.S.A.). The jejunal segment was prewashed initially with drug-free buffer for 10 min and then pumped with test solution. Outlet tubing samples were collected every 10 min for 6 collection periods after water and solute transport reached steady-state. After 90 min perfusion, blood sample (1-2 mL) was drawn by cardiac puncture. The blood samples were centrifuged at 3000 rpm for 10 min, the plasma were separated and stored at -20° C. before analysis. The samples were filtered through 0.2 μm membrane filters before injecting into HPLC system.
Assays of L-dopa and test compounds were performed on HPLC consisting an autosampler (Model 717, Waters, Millipore, Milford, Mass., U.S.A.), a solvent delivery pump (Model 600E, Waters), a tunable absorbence detector (Model 484 or 486, Waters), and a PC 486 computer with a chromatography manager software (Millennium 2010, Millipore). L-Dopa from the perfusate was assayed on a Spheri 5RP-18 column (ABI, 5 μm, 250×4.6 mm) at flow rate of 1.0 mL/min with mobile phase comprising MeOH:0.05M NH4 H2 PO4 buffer (pH 4.6) containing 0.02M sodium 1-pentanesulfonate=10:90 (v/v). […] Standards were injected during each assay. Linearity of standard peak area ratios was validated. Numerical computation on data were performed on Statworks and are represented as mean±standard error of mean (s.e.m) for n experiments. Treatment differences were evaluated by t test.

[7] = 37° C., 2 minutes of incubation
Experimental: Mucosa suspension was prepared from the intestine of male Wistar rats according to the method of Hu et al. [Pharm. […] After abdominal incision the intestinal segment between the beginning of the jejunum and the end of the ileum was removed and everted to let the interior exposed. The mucosal layer was washed with normal saline and then scraped with glass microscope slides. The scraping was collected, diluted 1:9 (v/v) with ice cold isotonic sucrose solution, and ultrasonicated for 200 seconds. The suspension was centrifuged at 2500 rpm for 5 minutes. The supernatant suspension was stored in an ice bath before subjected to degradation study. All the stability studies were conducted right after the mucosa suspension was prepared. One hundred microliter of a methanolic solution of the test compound (1 mg/mL) was diluted with 2.4 mL of an isotonic mannitol buffer solution (pH=6.5) as the stock solution. One hundred microliter of the stock solution was mixed with equal volume of the mucosal suspension. The mixture was incubated in a 37° C. water bath and subjected to sampling at time intervals between zero to 60 minutes. Two hundred microliter of each sampled solution was denatured with MeOH (0.8 mL) and centrifuged at 14000 rpm for 5 minutes. Twenty to one hundred microliters each of the solution was subjected to HPLC assay on a Lichrospher 100 RP-18 column (E. Merck, 5 μm, 250×3.9 mm). […]

[8] = i.p. 1-2 hours prior to (+)-methamphetamine

Q: For NCCc1ccc(O)c(O)c1 [dopamine], which “contraction of vas deferences (resting tension)” value [1] is on record?
A: elicited

Q: What about the “contraction of pulmonary artery (resting tension)” value [2] of the same compound?
A: elicited

Q: Which rotation ([3]; 4.2 mg/kg i.p., (+)-methamphetamine injected 1 h after treatment) does the source give for NC(Cc1ccc(O)c(O)c1)C(=O)O [L-dopa, 2-amino-3-(3,4-dihydroxyphenyl)propanoic acid] here?
A: 287 ± 86 turns/h

Q: What about the “AUCCSF /AUCplasma” value ([4]; Parkinson disease, literature (Olanow et al. 1991)) of the same compound?
A: 12/100

Q: What about the oral bioavailability ([4]; at up to 1000 mg/day) of the same compound?
A: 33%

Q: Which fraction of absorption [5] does the source give for D-phenylglycine-L-dopa [compound 1a] here?
A: 76 ± 24%

Q: What about the “plasma concentration, fold higher than that of L-dopa” value [6] of the same compound?
A: 60-100 fold

Q: And the “plasma conc. (mean ± s.e.m)” value [6]?
A: 64.65 ± 5.45

Q: With D-Phenylglycine-L-serine-L-dopa [2a] as the compound, how does the “plasma conc. (mean ± s.e.m)” value [6] read?
A: 8.49 ± 1.36

Q: For “D-p-hydroxyphenylglycine-L-serine-L-dopa [2b]”, which “plasma concentration, fold higher than that of L-dopa” value [6] is on record?
A: 60-100 fold

Q: What about the “plasma conc. (mean ± s.e.m)” value [6] of the same compound?
A: 62.1 ± 3.53

Q: Which results are given for L-dopa-D-phenylglycine [1c]?
A: plasma concentration, fold higher than that of L-dopa [6]: 60-100 fold; plasma conc. (mean ± s.e.m) [6]: 104.00 ± 12.98

Q: Which “plasma conc. (mean ± s.e.m)” value [6] does the source give for D-p-hydroxyphenylglycine-L-dopa [1b] here?
A: 0.60 ± 0.01

Q: For “D-p-hydroxyphenylglycine-L-proline-L-dopa [compound 2d]”, which rotation ([3]; 9.6 mg/kg i.p., (+)-methamphetamine injected 1 h after treatment) is on record?
A: 223 ± 95 turns/h

Q: And the rotation ([3]; 9.6 mg/kg i.p., (+)-methamphetamine injected 2 h after treatment)?
A: 247 ± 67 turns/h

Q: What about the “anti-rotation activity compared with L-dopa (in words)” value [3, 8] of the same compound?
A: slightly higher than that of L-dopa

Q: And the “effect on (+)-methamphetamine-induced rotation (in words)” value [3, 8]?
A: significantly prohibited

Q: Which “fraction degraded in rat intestinal mucosa suspension” value [7] does the source give for NCC(=O)N[C@@H](Cc1ccccc1)C(=O)O [L-glycine-L-phenylalanine] (H-Gly-Phe-OH) here?
A: 81%
